Target: T1, human β3-AR (Homo sapiens, UniProt P13945)
T1 construct: Full-length β3-AR clones (402 amino acids) containing the last 6 amino acids of hβ3-AR; expressed in transfected cells; host or cells: CHO (Chinese hamster ovary) cells
Assay: cAMP accumulation (SPA) in CHO cells transfected with human β3-AR
Format: cell-based
Conditions: CHO cells transfected with human β3-AR; for EC50: cAMP by SPA, 30 min at 37° C., 10^−9 M to 10^−5 M, read-out: EC50(β3); for IA(β3): maximal response of compound relative to maximal response of isoproterenol at 10^−5 M
Experimental: The ability of the compounds of this invention to treat or inhibit disorders related to insulin resistance or hyperglycemia was confirmed with representative compounds of this invention in the following standard pharmacological test procedures, which measured the binding selectivity of the β1-, β2-, and β3-AR. Binding to the receptors was measured in Chinese Hamster ovary (CHO) cells that were transfected with β1-, β2-, and β3-AR's. The following briefly summarizes the procedures used and results obtained.
Cloning of Human β3-AR Genomic DNA: cDNA was constructed by ligating four polymerase chain reaction (PCR) products using the following primers: an ATG-Narl fragment, sense primer 5′-[…]3′ and anti-sense primer 5′[…]3′; a Narl-Accl fragment, 5′[…]3′ as sense and 5′[…]3′ as anti-sense primer; an Accli—Styl fragment, sense primer 5′[…]3′ and anti-sense primer 5′[…]3′ and a Styl-TAG fragment, with sense primer 5′ […]3′ and anti-sense primer 5′ […]3′ . The corresponding primer sequences are described in Mantzoros, C. S., et.al., Diabetes, 1996, 45, 909-914. The four fragments are ligated into a pUC 18 plasmid (Gibco-BRL) and sequenced. Full-length β3-AR clones (402 amino acids) containing the last 6 amino acids of hβ3-AR are prepared with the β3-βARpcDNA3 from ATTC.
Binding Procedure: Clones expressing receptor levels of 70 to 110 fmoles/mg protein were used in the test procedures. CHO cells were grown in 24-well tissue culture plates in Dulbecco's Modified Eagle Media with 10% fetal bovine serum, MEM non-essential amino acids, Penicillin—Streptomycin and Geneticin. On the day of test procedure, growth medium was replaced with preincubation media (Dulbecco's Modified Eagle Media) and incubated for 30 minutes at 37° C. Pre-incubation medium was replaced with 0.2 ml treatment medium containing DMEM media containing 250 μM IBMX (isobutyl-1-methylxantine) plus 1 mM ascorbic acid with test compound dissolved in DMSO. Test compounds were assayed over a concentration range of 10^−9 M to 10^−5 M for β3-AR transfected cells and 10^−8 to 10^−4 M for β1-AR and β2-AR transfected cells. Isoproterenol (10^−5 M) was used as an internal standard for comparison of activity. Cells were incubated at 37° C. on a rocker for 30 min with the β3-AR transfected cells and 15 min with β1-AR and β2-AR transfected cells. Incubation was stopped by the addition of 0.2N HCl and the acid was neutralized with 2.5N NaOH. The plates, containing the cells and neutralized media, were stored at −20° C. until ready to test for cAMP using the SPA test kit (Amersham).
Data Analysis and Results: Data collected from the SPA test procedure were analyzed as percent of the maximal isoproterenol response at 10^−5 M. Activity curves were plotted using the SAS statistical and graphics software.

T1 sequence (P13945 whole entry): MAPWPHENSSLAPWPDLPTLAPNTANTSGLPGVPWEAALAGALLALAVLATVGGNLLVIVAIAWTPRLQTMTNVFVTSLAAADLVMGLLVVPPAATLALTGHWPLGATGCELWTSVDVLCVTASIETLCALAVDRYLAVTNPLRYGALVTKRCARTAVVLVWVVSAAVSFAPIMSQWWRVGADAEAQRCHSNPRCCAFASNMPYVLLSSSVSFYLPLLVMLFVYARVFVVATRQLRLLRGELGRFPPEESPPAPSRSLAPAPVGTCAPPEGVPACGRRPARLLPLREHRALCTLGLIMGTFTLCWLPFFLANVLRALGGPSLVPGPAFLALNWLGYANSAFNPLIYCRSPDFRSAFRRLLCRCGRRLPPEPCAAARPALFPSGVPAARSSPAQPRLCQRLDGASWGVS

EC50 [nM] | IA(β3) | SMILES
55 | 0.74 | CN(C)c1ccc(C2(CNC3=NS(=O)(=O)N=C3Nc3ccc(CC(C)(C)NC[C@H](O)COc4ccc(O)cc4)cc3)CCCC2)cc1 [Compound 7, 4-{[(2S)-3-({2-[4-({4-[({1-[4-(dimethylamino)phenyl]cyclopentyl}methyl)amino]1,1-dioxido-1,25-thiadiazol-3-yl}amino)phenyl]-1 1-dimethylethyl}amino)-2-hydroxypropyl]oxy}phenol]
 | 0.29 | CCCCCCCCNC1=NS(=O)(=O)N=C1Nc1ccc(CC(C)NC[C@H](O)COc2ccc(OCc3ccccc3)cc2)cc1 (stereo partly drawn) [Compound 11, (2S)-1-(4-Benzyloxy-phenoxy)-3-{1-methyl-2-[4-(4-octylamino-1,1-dioxo-1H-1.lambda(6).-[1,2,5]thiadiazol-3-ylamino)-phenyl]-ethylamino}-propan-2-ol]
21 | 0.81 | CCCCCCCCNc1c(Nc2ccc(CC(C)NC[C@H](O)COc3ccc(O)cc3)cc2)c(=O)c1=O (stereo partly drawn) [Compound 14, 3-(4-{2-[(2S)-2-Hydroxy-3-(4-hydroxy-phenoxy)-propylamino]-propyl}-phenylamino)-4-octylamino-cyclobut-3-ene-1,2-dione]
 | 0.36 | CCCCCCCCCCNC1=NS(=O)(=O)N=C1Nc1ccc(CC(C)NC[C@H](O)COc2cccc3[nH]c4ccccc4c23)cc1 (stereo partly drawn) [Compound 19, (2S)-1-(9H-Carbozol-4-yloxy)-3-{2-[4-(4-decylamino-1,1-dioxo-1H-1-.lambda(6).-[1,2,5]thiadiazol-3-ylamino)-phenyl]-1-methyl-ethylamino}-propan-2-ol]
 | 0.39 | CCCCCCCCCCNC1=NS(=O)(=O)N=C1Nc1ccc(CC(C)NC[C@H](O)COc2ccccc2)cc1 (stereo partly drawn) [Compound 20, (2S)-1-{2-[4-(4-Decylamino-1,1-dioxo-1H-1(lambda(6))-[1,2,5]thiadiazol-3-ylamino)-phenyl]-1-methyl-ethylamino}-3-phenoxy-propan-2-ol]
88 | 0.85 | CCCCCCCCCCNC1=NS(=O)(=O)N=C1Nc1ccc(CC(C)NC[C@H](O)COc2ccc(O)cc2)cc1 (stereo partly drawn) [Compound 25, 4-((2S)-3-{2-[4-(4-Decylamino-1,1-dioxo-1H-1(lambda(6))-[1,2,5]thiadiazol-3-ylamino)-phenyl]-1-methyl-ethylamino}-2-hydroxy-propoxy)-phenol]
14 | 0.89 | CC(C)(Cc1ccc(NC2=NS(=O)(=O)N=C2NCC(c2ccccc2)c2ccccc2)cc1)NC[C@H](O)COc1ccc(O)cc1 [Compound 29, 4-[(2S)-3-(2-{4-[4-(2,2-Diphenyl-ethylamino)-1,1-dioxo-1H-1(lambda(6))-[1,2,5]thiadiazol-3-ylamino]-phenyl}-1,1-dimethyl-ethylamino)-2-hydroxy-propoxy]l-phenol]
5 | 1.0 | CC(Cc1ccc(NC2=NS(=O)(=O)N=C2NCC2(c3ccccc3)CCCC2)cc1)NC[C@H](O)COc1ccc(O)cc1 (stereo partly drawn) [Compound 31, 4-{(2S)-3-[2-(4-{1,1-Dioxo-4-[(1-phenyl-cyclopentylmethyl)-amino]-1H-1(lambda(6))-[1,2,5]thiadiazol-3-ylamino}-phenyl)-1-methyl-ethylamino]-2-hydroxy-propoxy}-phenol]
90 | 0.62 | CCOC(=O)CCCNC1=NS(=O)(=O)N=C1Nc1ccc(CC(C)NC[C@H](O)COc2ccc(OCc3ccccc3)cc2)cc1 (stereo partly drawn) [Compound 32, 4-[4-(4-{2-[(2S)-3-(4-benzyloxy-phenoxy)-2-hydroxy-propylamino]-propyl}-phenylamino)-1,1-Dioxo-1H-1(lambda(6))-[1,2,5]thiadiazol-3-ylamino]-butyric acid ethyl ester]
37 | 1.17 | CCOC(=O)CCCNC1=NS(=O)(=O)N=C1Nc1ccc(CC(C)NC[C@H](O)COc2ccc(O)cc2)cc1 (stereo partly drawn) [Compound 33, 4-{4-(4-{2-[(2S)-2-Hydroxy-3-(4-hydroxy-phenoxy)-propylamino]-propyl}-phenylamino)-1,1-dioxo-1H-1.lambda(6).-[1,2,5]thiadiazol-3-ylamino]-butyric acid ethyl ester]
0.8 | 1.0 | CN(C)c1ccc(C2(CNC3=NS(=O)(=O)N=C3Nc3ccc(CC(C)(C)NCC(O)c4ccc(O)c(NS(C)(=O)=O)c4)cc3)CCCC2)cc1 (centres unmarked) [Compound 34, N-[5-(2-{2-[4-(4-{[1-(4-dimethylamino-phenyl)-cyclopentylmethyl]-amino}-1,1-dioxo-1H-1.lambda(6).-[1,2,5]thiadiazol-3-ylamino)-phenyl]-1,1-dimethyl-ethylamino}-1-hydroxy-ethyl)-2-hydroxy-phenyl]-methanesulfonamide]

The remaining lines, values behind:

SMILES | EC50 [nM] | IA(β3)
CCCCCCCCNC1=NS(=O)(=O)N=C1Nc1ccc(CC(C)(C)NC[C@H](O)COc2ccc(OCc3ccccc3)cc2)cc1 [4 (step F)] | 1060 | 0.37
CCCCCCCCNC1=NS(=O)(=O)N=C1Nc1ccc(CCNC[C@H](O)COc2ccc(OCc3ccccc3)cc2)cc1 [5 (step E), (2S)-1-(4-Benzyloxy-phenoxy)-3-{2-[4-(4-octylamino-1,1-dioxo-1H-1.lambda(6).-[1,2,5]thiadiazol-3-ylamino)-phenyl]ethylamino}-propan-2-ol] | 1390 | 0.15
CCCCCCCCNC1=NS(=O)(=O)N=C1Nc1ccc(CC(C)NC[C@H](O)c2ccc(OCc3ccccc3)c(NS(C)(=O)=O)c2)cc1 (stereo partly drawn) [6 (step B), N-[2-Benzyloxy-5-((1R)-1-hydroxy-2-{1-methyl-2-[4-(4-octylamino-1,1-dioxo-1H-1(lambda(6))-[1,2,5]thiadiazol-3-ylamino)-phenyl]-ethylamino}-ethyl)-phenyl]-methanesulfonamide] |  | 0.32
CN(C)c1ccc(C2(CNC3=NS(=O)(=O)N=C3Nc3ccc(CC(C)(C)NC[C@H](O)COc4ccc(OCc5ccccc5)cc4)cc3)CCCC2)cc1 [7 (step E), (2S)-1-(4-Benzyloxy-phenoxy)-3-{2-{4-(4-{[1-(4-dimethylamino-phenyl)-cyclopentylmethyl]-amino}-1,1-dioxo-1H-1(lambda(6))-[1,2,5]thiadiazol-3-ylamino)-phenyl]-1,1-dimethyl-ethylamino}-propan-2-ol] | 682 | 0.56
CCCCCCNC(=O)Nc1ccc(C2(CNC3=NS(=O)(=O)N=C3Nc3ccc(CC(C)(C)NC[C@@H](O)COc4ccc(OCc5ccccc5)cc4)cc3)CCCC2)cc1 [8 (step H), 1-[4-(1-{[4-(4-{2-[(2R)-3-(4-Benzyloxy-phenoxy)-2-hydroxy-propylamino]-2-methyl-propyl}-phenylamino)-1 1-dioxo-1H-1.lambda(6).-[1,2,5]thiadiazol-3-ylamino]-methyl}-cyclopentyl)-phenyl]-3-hexyl-urea] | 60 | 0.40
CCCCCCCCNC1=NS(=O)(=O)N=C1Nc1ccc(CC(C)NCC(O)c2cccc(Cl)c2)cc1 [Compound 3, (1R)-1-(3-Chloro-phenyl)-2-{1-methyl-2-[4-(octylamino-1,1-dioxo-1H-1-.lambda(6).-1,2,5]thiadiazol-3-ylamino)-phenyl]-ethylamino}-ethanol] | 38 | 0.86
CCCCCCCCNC1=NS(=O)(=O)N=C1Nc1ccc(CC(C)(C)NC[C@H](O)COc2ccc(O)cc2)cc1 [Compound 4] | 68 | 1.10
